System: lymphocytic leukemia P388
Assay: Lymphocytic Leukemia P388 Test
Type: in vivo, BDF1 mice
Details: for Median Survival: BDF1 mice; for T/C × 100 (%): ratio of survival time treated/control
Experimental: The animals used were BDF1 mice, all of one sex, weighing a minimum of 18 g and all within a 3 g weight range. There were 5 or 6 mice per test group. The tumor transplant was by intraperitoneal injection of 0.5 ml of dilute ascitic fluid containing 10^6 cells of lymphocytic leukemia P388. The test compounds were administered intraperitoneally on days 1, 5 and 9 (relative to tumor inocu-lation) at various doses. The animals were weighed and survivors recorded on a regular basis for 60 days. The median survival time and the ratio of survival time for treated (T)/control (C) animals were calculated.

[1] = dose 0.75 mg/kg intraperitoneally on days 1, 5 and 9
[2] = dose 1.5 mg/kg intraperitoneally on days 1, 5 and 9
[3] = dose 3 mg/kg intraperitoneally on days 1, 5 and 9

SMILES | Median Survival [1] [days] | T/C × 100 (%) [1] [%] | Median Survival [2] [days] | T/C × 100 (%) [2] [%] | Median Survival [3] [days] | T/C × 100 (%) [3] [%]
N[C@@H](CC(=O)O)C(=O)NCCNc1ccc(NCCNC(=O)[C@@H](N)CC(=O)O)c2c1C(=O)c1c(O)ccc(O)c1C2=O.O=C(O)C(F)(F)F.O=C(O)C(F)(F)F (relative stereo) [Example 40, S-(R*,R*)]-4,4'-[(9,10-Dihydro-5,8-dihydroxy-9,10-dioxo-1,4-anthracenediyl)bis(imino-2,1-ethanediylimino)]bis[3amino-4-oxobutanoic acid]bis(trifluoroacetate)] | 23.0 | 192 | 19.5 | 163 | 23.0 | 192
CC(C)(C)OC(=O)N[C@@H](COCc1ccccc1)C(=O)NCCNc1ccc(NCCNC(=O)[C@H](COCc2ccccc2)NC(=O)OC(C)(C)C)c2c1C(=O)c1c(O)ccc(O)c1C2=O (relative stereo) [Example 41, S-(R*,R*)]-N,N'-[(9,10-Dihydro-5,8-dihydroxy-9,10-dioxo-1,4-anthracenediyl)bis[imino-2,1-ethanediylimino-[2-oxo-1-[(phenylmethoxy)methyl]-2,1-ethanediyl]]]biscarbamic acid, bis(1,1-dimethylethyl)ester] | 12.0 | 120 | 13.5 | 135 | 15.5 | 155
N[C@@H](COCc1ccccc1)C(=O)NCCNc1ccc(NCCNC(=O)[C@@H](N)COCc2ccccc2)c2c1C(=O)c1c(O)ccc(O)c1C2=O.O=C(O)C(F)(F)F.O=C(O)C(F)(F)F (relative stereo) [Example 42, [S-(R*,R*)]-N,N'-[(9,10-Dihydro-5,8-dihydroxy-9,10-dioxo-1,4-anthracenediyl)bis[imino-2,1-ethanediyl)]bis[2-amino-3-(phenylmethoxy)-propanamide]bis(trifluoroacetate)] | 19.5 | 195 | 21.5 | 215 | 19.5 | 195
CC(C)(C)OC(=O)N[C@@H](CCC(=O)OCc1ccccc1)C(=O)NCCNc1ccc(NCCNC(=O)[C@H](CCC(=O)OCc2ccccc2)NC(=O)OC(C)(C)C)c2c1C(=O)c1c(O)ccc(O)c1C2=O (relative stereo) [Example 43, [S-(R*,R*)]-5,5'-(9,10-Dihydro-5,8-dihydroxy-9,10-dioxo-1,4-anthracenediyl)bis(imino-2,1-ethanediylimino)]bis[4-[[(1,1-dimethylethoxy)carbonvl]amino]-5-oxopentanoic acid]bis(phenylmethyl)ester] | 16.5 | 150 | 17.0 | 155 | 18.0 | 164
N[C@@H](CCC(=O)OCc1ccccc1)C(=O)NCCNc1ccc(NCCNC(=O)[C@@H](N)CCC(=O)OCc2ccccc2)c2c1C(=O)c1c(O)ccc(O)c1C2=O.O=C(O)C(F)(F)F.O=C(O)C(F)(F)F (relative stereo) [Example 44, [S-(R*,R*)]-5,5'-[(9,10-Dihydro-5,8-dihydroxy-9,10-dioxo-1,4-anthracenediyl)bis(imino-2,1-ethanediylimino)]bis[4-amino-5-oxopentanoic acid]bis(phenylmethyl)ester, bis(trifluoroacetate)] | 18.0 | 164 | 19.5 | 177 | 24.0 | 218
CC(C)(C)OC(=O)N[C@@H](CC(=O)OCc1ccccc1)C(=O)NCCNc1ccc(NCCNC(=O)[C@H](CC(=O)OCc2ccccc2)NC(=O)OC(C)(C)C)c2c1C(=O)c1c(O)ccc(O)c1C2=O (relative stereo) [Example 45, [S-(R*,R*)]-4,4'-[(9,10-Dihydro-5,8-dihydroxy-9,10-dioxo-1,4-anthracenediyl)bis(imino-2,1-ethanediylimino)]bis[3-[[(1,1-dimethylethoxy)carbonyl]amino]-4-oxobutanoic acid]bis(phenylmethyl)ester] | 14.0 | 127 | 15.5 | 141 | 18.0 | 164
N[C@@H](CC(=O)OCc1ccccc1)C(=O)NCCNc1ccc(NCCNC(=O)[C@@H](N)CC(=O)OCc2ccccc2)c2c1C(=O)c1c(O)ccc(O)c1C2=O.O=C(O)C(F)(F)F.O=C(O)C(F)(F)F (relative stereo) [Example 46, [S-(R*,R*)]-4,4'-[(9,10-Dihydro-5,8-dihydroxy-9,10-dioxo-1,4-anthracenediyl)bis(imino-2,1-ethanediylimino)]bis[3-amino-4-oxobutanoic acid]bis(phenylmethyl)ester, bis(trifluoroacetate)] | 21.0 | 191 | 25.5 | 232 | 26.0 | 236
CC(C)(C)OC(=O)CC[C@H](NC(=O)OCc1ccccc1)C(=O)NCCNc1ccc(NCCNC(=O)[C@H](CCC(=O)OC(C)(C)C)NC(=O)OCc2ccccc2)c2c1C(=O)c1c(O)ccc(O)c1C2=O (relative stereo) [Example 47, [S-(R*,R*)]-5,5'-[(9,10-Dihydro-5,8-dihydroxy-9,10-dioxo-1,4-anthracenediyl)bis(imino-2,1-ethanediylimino)]bis[5-oxo-4-[[(phenylmethoxy)carbonyl]amino]pentanoic acid], bis(1,1-dimethylethyl)ester] | 15.0 | 136 | 17.0 | 155 | 16.5 | 150
O=C(O)C(F)(F)F.O=C(O)C(F)(F)F.O=C(O)CC[C@H](NC(=O)OCc1ccccc1)C(=O)NCCNc1ccc(NCCNC(=O)[C@H](CCC(=O)O)NC(=O)OCc2ccccc2)c2c1C(=O)c1c(O)ccc(O)c1C2=O (relative stereo) [Example 48, [S-(R*,R*)]-5,5'-[(9,10-Dihydro-5,8-dihydroxy-9,10-dioxo-1,4-anthracenediyl)bis(imino-2,1-ethanediylimino)]bis[5-oxo-4-[[(phenylmethoxy)carbonyl]amino]pentanoic acid, bis(trifluoroacetate)] | 14.0 | 117 | 15.0 | 125 | 16.5 | 138
Br.Br.NCC(=O)N[C@@H](Cc1ccccc1)C(=O)NCCNc1ccc(NCCNC(=O)[C@H](Cc2ccccc2)NC(=O)CN)c2c1C(=O)c1c(O)ccc(O)c1C2=O (relative stereo) [Example 54, [S-(R*,R*)]-N,N'-[(9,10-Dihydro-5,8-dihydroxy-9,10-dioxo-1,4-anthracenediyl)bis(imino-2,1-ethanediyl)]bis[glycyl-L-phenylalaninamide]dihydrobromide] | 18.5 | 185 | 19.0 | 195 | 19.0 | 190
C[C@H](N)C(=O)NCCNc1ccc(NCCNC(=O)[C@H](C)N)c2c1C(=O)c1c(O)ccc(O)c1C2=O.Cl.Cl (stereo in doubt) [Example 16, [S-(R*,R*)]-N,N'-[(9,10-Dihydro-5,8-dihydroxy-9,10-dioxo-1,4-anthracenediyl)bis(imino-2,1-ethanediyl)]bis-[2-aminopropanamide], dihydrochloride] | 25.5 | 232 | 52.5 | 477 | 42.5 | 386
CC(C)C[C@H](N)C(=O)NCCNc1ccc(NCCNC(=O)[C@@H](N)CC(C)C)c2c1C(=O)c1c(O)ccc(O)c1C2=O.Cl.Cl (stereo in doubt) [Example 18, [S-(R*,R*)]-N,N'-[(9,10-Dihydro-5,8-dihydroxy-9,10-dioxo-1,4-anthracenediyl)bis(imino-2,1-ethanediyl)]bis-[-amino-4-methylpentanamide], dihydrochloride] | 25.5 | 213 | 26.0 | 217 | 18.0 | 150
CC(C)C[C@@H](N)C(=O)NCCNc1ccc(NCCNC(=O)[C@H](N)CC(C)C)c2c1C(=O)c1c(O)ccc(O)c1C2=O.Cl.Cl (stereo in doubt) [Example 20, [(R*,R*)]-N,N'-[(9,10-Dihydro-5,8-dihydroxy-9,10-dioxo-1,4-anthracenediyl)bis(imino-2,1-ethanediyl)]bis-[2-amino-4-methylentanamide], dihydrochloride] | 20.5 | 171 | 22.5 | 188 | 23.5 | 196
C[C@@H](N)C(=O)NCCNc1ccc(NCCNC(=O)[C@@H](C)N)c2c1C(=O)c1c(O)ccc(O)c1C2=O.Cl.Cl (stereo in doubt) [Example 25, [R-(R*,R*)]-N,N'-[(9,10-Dihydro-5,8-dihydroxy-9,10-dioxo-1,4-anthracenediyl)bis(imino-2,1-ethanediyl)]bis-[2-aminopropanamide], dihydrochloride] | 19.0 | 173 | 20.0 | 182 | 24.0 | 218
